These results are taken from EP2913057B1, “Cancer peptide therapeutics” (Indiana University Research and Technology Corporation, priority 2008, dated 2010).

Data set [1] deals with U937 cells. Nature of the data set: Cytotoxicity (apoptosis / cell death) of R9-linked caPCNA peptides by flow cytometry. Format: cell-based. The note with it: 24 hours; for % cancer cell death: 30mM of peptide, flow cytometry. How it is done:
First, it was tested whether or not the R9 sequence alone had any cytotoxic effect in U937 cells. The U937 cells were treated with up to 100mM of the R9 sequence for 24 hours.
Once it was established that the R9 sequence promoted cellular uptake of the peptide, increasing amounts of R9-caPep were added to U937 cells to determine if the peptide's uptake would have any cytotoxic effect.
To verify that the cytotoxicity of the R9-caPep was due to the PCNA peptide sequence itself, a scrambled peptide using the same eight amino acids, R9-Scrambled, was prepared (Table 3).
The cancer associated epitope of PCNA is also part of the flexible IDCL region of PCNA. This region of PCNA is considered to have a disordered structure. Disordered regions in proteins are usually associated with protein-to-protein interaction sites. […] To determine which amino acids in the R9-caPep sequence are necessary for binding of the peptide to these proteins, peptide constructs were generated that mutated each aminoacid individually to an alanine (Table 3). Each alanine mutant peptide of caPCNA was used to treat U937 cells for 24 hours. An amino acid that is important to protein binding would presumably show decreased cell cytotoxicity when it is substituted with an alanine. Those amino acids which are not critical for binding could be anticipated to show a cytotoxic level similar to that of the unsubstituted peptide. For a comparison of the potential cytotoxic effect of each of the alanine substituted R9-linked caPeptides, U937 cells were treated with 30mM of peptide. […] It was observed that peptides containing an alanine substituted at position aa126 or aa133 show little cytotoxic activity and therefore were likely important for the peptide's activity.
In general terms: A flow cytometer gives signals particle by particle.

Data set [2] concerns MCF 7 (breast cancer). Nature of the data set: Cytotoxic effect in malignant breast cells, cell death by flow cytometry. Format: cell-based. Also on record: dose or concentration left out as unconfirmed. The note with it: 48 hours. How it is done:
The R9-caPeptide was evaluated for cytotoxic effects in non-malignant (MCF 10A) and malignant (MCF 7) breast cells (Table 6). The cells were treated with 50 mM R9-caPeptide for 48 hours and the extent of cell death was evaluated by flow cytometry. […] The significant level of cytotoxicity in breast cancer cells is likely due to enhanced binding interaction of caPeptide with specific DNA repair proteins in these cells, as indicated for example by the observed preferential binding of caPCNA for XPG protein, leading to an inhibition of DNA repair in these cells, and ultimately cell death.

For data set [3], the system named is U937 cells. Nature of the data set: cells. The note with it: Homo sapiens, U-937, read-out: cell death.

Entries after “also recorded” stand apart in the source; their conditions may differ. Residues, ends and D or L forms follow the SMILES beside them.

For the compound “RRRRRRRRRCCLAIPEQEY [A2-sub. peptide, R9-linked caPCNA peptide, alanine at aa127]”, in data set [1], the “% cancer cell death” value is listed as 47±13%.
Take “RRRRRRRRRCCLGIPAQEY [A5-sub. peptide, R9-linked caPCNA peptide, alanine at aa130]”: the “% cancer cell death” value in data set [1] came to 45±14%.
Same read-out and setting: for “RRRRRRRRRCCAGIPEQEY [A1-sub. peptide, R9-linked caPCNA peptide, alanine at aa126]” the value was 8±9%.
In the case of RRRRRRRRR [R9, reference compound], the “cytotoxic effect (apoptosis)” value in data set [1] (up to 100mM of the R9 sequence) is “did not promote apoptosis; also recorded: did not cause an increase apoptosis”.
Regarding `CC[C@H](C)[C@H](NC(=O)CNC(=O)[C@H](CC(C)C)NC(=O)[C@H](CS)NC(=O)[C@H](CS)NC(=O)[C@@H](CCCNC(=N)N)NC(=O)[C@@H](CCCNC(=N)N)NC(=O)[C@@H](CCCNC(=N)N)NC(=O)[C@@H](CCCNC(=N)N)NC(=O)[C@@H](CCCNC(=N)N)NC(=O)[C@@H](CCCNC(=N)N)NC(=O)[C@@H](CCCNC(=N)N)NC(=O)[C@@H](CCCNC(=N)N)NC(=O)[C@H](N)CCCNC(=N)N)C(=O)N1CCC[C@H]1C(=O)N[C@@H](CCC(=O)O)C(=O)N[C@@H](CCC(N)=O)C(=O)N[C@@H](CCC(=O)O)C(=O)N[C@@H](Cc1ccc(O)cc1)C(=O)O` [R9-caPep], the “cytotoxicity for malignant breast cells (MCF7) relative to non-malignant breast cells (MCF10A)” value in data set [2] is “approximately five times more cytotoxic”.
For the compound “RRRRRRRRRCCLGIPEQAY [A7-sub. peptide, R9-linked caPCNA peptide, alanine at aa132]”, in data set [1], the “% cancer cell death” value worked out at 88±4%.
On the same count and under the same terms, for “RRRRRRRRRCCLGIPEQEA [A8-sub. peptide, R9-linked caPCNA peptide, alanine at aa133]” the value was 7±6%.
The same measure, in the same setting: next, “RRRRRRRRRCCLGIAEQEY [A4-sub. peptide, R9-linked caPCNA peptide, alanine at aa129]”: 80±7%; “RRRRRRRRRCCLGAPEQEY [A3-sub. peptide, R9-linked caPCNA peptide, alanine at aa128]”: 21±12%.
Take `CC[C@H](C)[C@H](NC(=O)CNC(=O)[C@@H](N)CC(C)C)C(=O)N1CCC[C@H]1C(=O)N[C@@H](CCC(=O)O)C(=O)N[C@@H](CCC(N)=O)C(=O)N[C@@H](CCC(=O)O)C(=O)N[C@@H](Cc1ccc(O)cc1)C(=O)O` [caPeptide] (H-LGIPEQEY-OH): in data set [1] (up to 200mM of caPeptide), the “cytotoxic activity (apoptosis)” value is on record as “did not have any cytotoxic activity; also recorded: no increase in apoptosis was detected”.
Consider `COc1cccc2c1C(=O)c1c(O)c3c(c(O)c1C2=O)C[C@@](O)(C(=O)CO)C[C@@H]3O[C@H]1C[C@H](N)[C@H](O)[C@H](C)O1` [doxorubicin], for which, in data set [3], the cytotoxicity at 0.1 µM amounted to 30%.
“RRRRRRRRRCCLGIPEAEY [A6-sub. peptide, R9-linked caPCNA peptide, alanine at aa131]”: the “% cancer cell death” value in data set [1] is 93±7%.
